Drawing on patent US8664257B2, “Oxygen-substituted 3-heteroaroylamino-propionic acid derivatives and their use as pharmaceuticals” (Sanofi, priority 2010, dated 2014), this text covers IC50 for 26 compounds.

Some results are limits rather than exact numbers.

For the assay, the target named is T1, Recombinant human cathepsin A (Homo sapiens, UniProt P10619).
T1 construct: Recombinant human cathepsin A (residues 29-480, with a C-terminal 10-His tag); 10-His (C); purchased R&D Systems 1049-SE
T1 sequence (P10619 29-312 limits assumed): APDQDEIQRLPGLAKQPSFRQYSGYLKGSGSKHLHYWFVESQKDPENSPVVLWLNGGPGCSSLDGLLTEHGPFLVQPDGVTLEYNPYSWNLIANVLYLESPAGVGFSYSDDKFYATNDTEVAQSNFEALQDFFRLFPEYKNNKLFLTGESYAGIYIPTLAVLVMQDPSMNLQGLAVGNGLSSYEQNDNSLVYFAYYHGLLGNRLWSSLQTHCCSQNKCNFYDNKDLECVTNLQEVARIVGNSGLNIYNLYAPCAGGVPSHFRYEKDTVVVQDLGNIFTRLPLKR
T1 sequence (P10619 327-480 limits assumed): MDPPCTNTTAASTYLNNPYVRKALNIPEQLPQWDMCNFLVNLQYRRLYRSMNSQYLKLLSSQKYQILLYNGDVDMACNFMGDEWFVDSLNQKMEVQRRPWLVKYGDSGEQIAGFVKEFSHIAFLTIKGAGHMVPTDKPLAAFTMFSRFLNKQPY
Briefly: Cathepsin A inhibitory activity. Type of assay: biochemical. As to conditions: read-out: Activity (2): Cathepsin A inhibitory activity, IC50 class. The method, boiled down: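 Read-out was microfluidic separation of cleaved vs. uncleaved Bodipy FL-bradykinin (2 μM), giving turnover, % inhibition and IC50. Compound and 833 ng/ml enzyme met for 15 min RT in pH 5.5 MES/DTT before substrate (15 min RT). The 29-480 His-tagged human enzyme was first activated by cathepsin L, then E-64 (10 μM).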

With `COc1ccccc1[C@H](CC(=O)O)NC(=O)c1cc(OC[C@@](C)(O)C(C)(C)C)n(-c2ccccc2F)n1` [Example 810, (S)-3-{[1-(2-Fluoro-phenyl)-5-((S)-2-hydroxy-2,3,3-trimethyl-butoxy)-1H-pyrazole-3-carbonyl]-amino}-3-(2-methoxy-phenyl)-propionic acid], the 50% inhibitory concentration (IC50) was less than 100 nM.
On to `COc1ccccc1[C@H](CC(=O)O)NC(=O)c1cc(OCC(C)(O)C(C)C)n(-c2ccccc2F)n1` (stereo partly drawn) [Example 811, (S)-3-{[1-(2-Fluoro-phenyl)-5-(2-hydroxy-2,3-dimethyl-butoxy)-1H-pyrazole-3-carbonyl]-amino}-3-(2-methoxy-phenyl)-propionic acid], for which the concentration for half-maximal inhibition (IC50) was less than 100 nM.
For `CC(C)C(C)(O)COc1cc(C(=O)N[C@@H](CC(=O)O)c2ccccc2C(F)(F)F)nn1-c1ccccc1F` (stereo partly drawn) [Example 812, (S)-3-{[1-(2-Fluoro-phenyl)-5-(2-hydroxy-2,3-dimethyl-butoxy)-1H-pyrazole-3-carbonyl]-amino}-3-(2-trifluoromethyl-phenyl)-propionic acid], the IC50 is less than 100 nM.
Turning to `CC(C)C(C)(O)COc1cc(C(=O)NC(CC(=O)O)C2CCCCC2)nn1-c1ccccc1F` (centres unmarked) [Example 813, 3-Cyclohexyl-3-{[1-(2-fluoro-phenyl)-5-(2-hydroxy-2,3-dimethyl-butoxy)-1H-pyrazole-3-carbonyl]-amino}-propionic acid], the IC50 is less than 100 nM.
As for `CC(C)CC(CC(=O)O)NC(=O)c1cc(OCC(C)(O)C(C)C)n(-c2ccccc2F)n1` (centres unmarked) [Example 814, 3-{[1-(2-Fluoro-phenyl)-5-(2-hydroxy-2,3-dimethyl-butoxy)-1H-pyrazole-3-carbonyl]-amino}-5-methyl-hexanoic acid], the concentration for half-maximal inhibition (IC50) was less than 100 nM.
As for `CC(C)(C)C(O)COc1cc(C(=O)N[C@H](CC(=O)O)c2ccc(Cl)cc2)nn1-c1ccccc1F` (stereo partly drawn) [Example 815, (R)-3-(4-Chloro-phenyl)-3-{[1-(2-fluoro-phenyl)-5-(2-hydroxy-3,3-dimethyl-butoxy)-1H-pyrazole-3-carbonyl]-amino}-propionic acid], the figure is less than 100 nM; as for `CC(C)[C@@](C)(O)COc1cc(C(=O)N[C@@H](CC(=O)O)c2ccc(Cl)cc2Cl)nn1-c1ccccc1F` [Example 816, (S)-3-(2,4-Dichloro-phenyl)-3-{[1-(2-fluoro-phenyl)-5-((R)-2-hydroxy-2,3-dimethyl-butoxy)-1H-pyrazole-3-carbonyl]-amino}-propionic acid], less than 100 nM.
As for `CC(C)[C@](C)(O)COc1cc(C(=O)N[C@@H](CC(=O)O)c2c(F)cccc2F)nn1-c1ccccc1F` [Example 817, (S)-3-(2,6-Difluoro-phenyl)-3-{[1-(2-fluoro-phenyl)-5-((S)-2-hydroxy-2,3-dimethyl-butoxy)-1H-pyrazole-3-carbonyl]-amino}-propionic acid], the figure is less than 100 nM; as for `CC(C)(C)[C@](C)(O)COc1cc(C(=O)NC(CC(=O)O)Cc2ccccc2)nn1-c1ccccc1F` (stereo partly drawn) [Example 818, 3-{[1-(2-Fluoro-phenyl)-5-((S)-2-hydroxy-2,3,3-trimethyl-butoxy)-1H-pyrazole-3-carbonyl]-amino}-4-phenyl-butyric acid], less than 100 nM; as for `CC(C)(C)[C@](C)(O)COc1cc(C(=O)N[C@@H](CC(=O)O)c2cccc(F)c2)nn1-c1ccccc1F` [Example 819, (S)-3-(3-Fluoro-phenyl)-3-{[1-(2-fluoro-phenyl)-5-((S)-2-hydroxy-2,3,3-trimethyl-butoxy)-1H-pyrazole-3-carbonyl]-amino}-propionic acid], less than 100 nM.
For `CC(C)(C)[C@@](C)(O)COc1cc(C(=O)NC(CC(=O)O)C2CCCCC2)nn1-c1ccccc1F` (stereo partly drawn) [Example 820, 3-Cyclohexyl-3-{[1-(2-fluoro-phenyl)-5-((R)-2-hydroxy-2,3,3-trimethyl-butoxy)-1H-pyrazole-3-carbonyl]-amino}-propionic acid], the concentration for half-maximal inhibition (IC50) is less than 100 nM.
As for `CC(C)[C@@](C)(O)COc1cc(C(=O)NC(CC(=O)O)Cc2ccccc2)nn1-c1ccccc1F` (stereo partly drawn) [Example 821, 3-{[1-(2-Fluoro-phenyl)-5-((R)-2-hydroxy-2,3-dimethyl-butoxy)-1H-pyrazole-3-carbonyl]-amino}-4-phenyl-butyric acid], the figure is less than 100 nM; as for `COc1ccccc1[C@H](CC(=O)O)NC(=O)c1cc(OC[C@](C)(O)C(C)C)n(-c2ccccc2F)n1` [Example 822, (S)-3-{[1-(2-Fluoro-phenyl)-5-((R)-2-hydroxy-2,3-dimethyl-butoxy)-1H-pyrazole-3-carbonyl]-amino}-3-(2-methoxy-phenyl)-propionic acid], less than 100 nM; as for `CC(C)CC(CC(=O)O)NC(=O)c1cc(OC[C@](C)(O)C(C)C)n(-c2ccccc2F)n1` (stereo partly drawn) [Example 823, 3-{[1-(2-Fluoro-phenyl)-5-((R)-2-hydroxy-2,3-dimethyl-butoxy)-1H-pyrazole-3-carbonyl]-amino}-5-methyl-hexanoic acid], 100 to 1000 nM.
Take `CC(C)[C@@](C)(O)COc1cc(C(=O)NC2(CC(=O)O)CCCC2)nn1-c1ccccc1F` [Example 824, (1-{[1-(2-Fluoro-phenyl)-5-((R)-2-hydroxy-2,3-dimethyl-butoxy)-1H-pyrazole-3-carbonyl]-amino}-cyclopentyl)-acetic acid]: the concentration for half-maximal inhibition (IC50) lay in the range of 100 to 1000 nM.
As for `CC(C)[C@](C)(O)COc1cc(C(=O)NC2(CC(=O)O)CCCC2)nn1-c1ccccc1F` [Example 825, (1-{[1-(2-Fluoro-phenyl)-5-((S)-2-hydroxy-2,3-dimethyl-butoxy)-1H-pyrazole-3-carbonyl]-amino}-cyclopentyl)-acetic acid], the figure is 100 to 1000 nM; as for `CC(C)[C@](C)(O)COc1cc(C(=O)NC(CC(=O)O)Cc2ccccc2)nn1-c1ccccc1F` (stereo partly drawn) [Example 826, 3-{[1-(2-Fluoro-phenyl)-5-((S)-2-hydroxy-2,3-dimethyl-butoxy)-1H-pyrazole-3-carbonyl]-amino}-4-phenyl-butyric acid], 100 to 1000 nM.
The same measure for `CC(C)[C@@](C)(O)COc1cc(C(=O)NCC(C(=O)O)c2ccccc2)nn1-c1ccccc1F` (stereo partly drawn) [Example 827, 3-{[1-(2-Fluoro-phenyl)-5-((R)-2-hydroxy-2,3-dimethyl-butoxy)-1H-pyrazole-3-carbonyl]-amino}-2-phenyl-propionic acid]: 100 to 1000 nM; for `CC(C)(C)[C@@H](O)COc1cc(C(=O)N[C@@H](CC(=O)O)c2ccc(Cl)cc2)nn1-c1ccccc1F` [Example 828, (S)-3-(4-Chloro-phenyl)-3-{[1-(2-fluoro-phenyl)-5-((R)-2-hydroxy-3,3-dimethyl-butoxy)-1H-pyrazole-3-carbonyl]-amino}-propionic acid]: 100 to 1000 nM.
The same measure for `CC(C)C(C)(O)COc1cc(C(=O)NC(CC(=O)O)Cc2ccccc2)nn1-c1ccccc1F` (centres unmarked) [Example 829, 3-{[1-(2-Fluoro-phenyl)-5-(2-hydroxy-2,3-dimethyl-butoxy)-1H-pyrazole-3-carbonyl]-amino}-4-phenyl-butyric acid]: 100 to 1000 nM.
As to `CC(C)[C@](C)(O)COc1cc(C(=O)NCC(C(=O)O)c2ccccc2)nn1-c1ccccc1F` (stereo partly drawn) [Example 830, 3-{[1-(2-Fluoro-phenyl)-5-((S)-2-hydroxy-2,3-dimethyl-butoxy)-1H-pyrazole-3-carbonyl]-amino}-2-phenyl-propionic acid], the IC50 is 100 to 1000 nM.
The same measure for `CC(C)(C)[C@](C)(O)COc1cc(C(=O)N[C@H](CC(=O)O)Cc2ccc(C#N)cc2)nn1-c1ccccc1F` [Example 832, (S)-4-(4-Cyano-phenyl)-3-{[1-(2-fluoro-phenyl)-5-((S)-2-hydroxy-2,3,3-trimethyl-butoxy)-1H-pyrazole-3-carbonyl]-amino}-butyric acid]: 1000 to 30000 nM.
As for `CC(C)[C@](C)(O)COc1cc(C(=O)N[C@H](CC(=O)O)Cc2ccc(C#N)cc2)nn1-c1ccccc1F` [Example 834, (S)-4-(4-Cyano-phenyl)-3-{[1-(2-fluoro-phenyl)-5-((S)-2-hydroxy-2,3-dimethyl-butoxy)-1H-pyrazole-3-carbonyl]-amino}-butyric acid], the figure is 1000 to 30000 nM.
The same measure for `CC(C)[C@](C)(O)COc1cc(C(=O)N[C@@H](CC(=O)O)c2ccccc2F)nn1-c1ccccc1F` [Example 835, (S)-3-(2-Fluoro-phenyl)-3-{[1-(2-fluoro-phenyl)-5-((S)-2-hydroxy-2,3-dimethyl-butoxy)-1H-pyrazole-3-carbonyl]-amino}-propionic acid]: less than 100 nM; for `CC(C)C(C)(O)COc1cc(C(=O)N[C@H](CC(=O)O)Cc2ccc(C#N)cc2)nn1-c1ccccc1F` (stereo partly drawn) [Example 836, (S)-4-(4-Cyano-phenyl)-3-{[1-(2-fluoro-phenyl)-5-(2-hydroxy-2,3-dimethyl-butoxy)-1H-pyrazole-3-carbonyl]-amino}-butyric acid]: 1000 to 30000 nM; for `CC(C)[C@](C)(O)COc1cc(C(=O)N[C@H](CC(=O)O)Cc2ccccc2)nn1-c1ccccc1F` [Example 837, (S)-3-{[1-(2-Fluoro-phenyl)-5-((S)-2-hydroxy-2,3-dimethyl-butoxy)-1H-pyrazole-3-carbonyl]-amino}-4-phenyl-butyric acid]: 1000 to 30000 nM.

As usually defined, the IC50 is the concentration that gives 50% inhibition.
